{"source": "paper PMC7725443", "about": "(Advanced healthcare materials, 2020)", "test_system": "OVSAHO cells", "experiment": "Cell viability of OVSAHO cells", "format": "cell-based, human", "settings": "50 nM and 100 nM, 24 h", "data": [{"smiles": "CC(C)C[C@H](NC(=O)[C@H](Cc1ccccc1)NC(=O)c1cnccn1)B(O)O", "note": "[BTZ, bortezomib]", "values": [{"measurement": "cell viability of OVSAHO cells treated with solely BTZ", "value": "cell compatible"}]}]}
